Literature values as cited in US20060002865A1, “Stable baking soda/peroxide with calcium and phosphate whitening product” (priority 2004, published 2006).
One block for each compound: values may come before it.

Columns and labels:
[1] = aqueous solution, pH about 7.0, about 25° C.

- solubility in water (in words): essentially insoluble
Compound: [Mg+2].[O-][O-] [Magnesium peroxide]

Compound: O.O.O=P([O-])([O-])O.[Ca+2] [dicalcium phosphate dihydrate]
- calcium cations released [1]: about 40 ppm

- solubility in water: about 2.5%
Compound: Sodium perborate
